Target: T1, Dimer of Gag-Pol polyprotein [489-587] (Human immunodeficiency virus 1, UniProt P12497)
T1 construct: 489-587
Experiment: Protease Inhibition Assay
Procedure: The inhibitory activities of the compounds toward HIV-1 PR were determined by sodium dodecyl sulfate-polyacrylamide gel electrophoresis (SDS-PAGE) assay. The IC50 values of active compounds were determined using the partially purified protease and the synthetic substrate Ac-Ser-Gln-AsnTyr-Pro-Ile-Val-NH2.

SMILES | IC50 [nM]
Cc1c(O)cccc1C(=O)N[C@@H](Cc1ccc(C(F)(F)F)cc1)[C@H](O)C(=O)N1C[C@@H](Cl)C[C@H]1C(=O)NC(C)(C)C [(2S,4S)-N-tert-butyl-4-chloro-1-[(2S,3S)-2-hydroxy-3-[(3-hydroxy-2-methylphenyl)formamido]-4-[4-(trifluoromethyl)phenyl]butanoyl]pyrrolidine-2-carboxamide] | 0.6
Cc1c(O)cc(F)cc1C(=O)N[C@@H](Cc1ccc2sccc2c1)[C@H](O)C(=O)N1C[C@@H](Cl)C[C@H]1C(=O)NC(C)(C)C [(5-Fluoro-3-hydroxy-2-methylbenzoyl)-{2(S)-hydroxy-3(S)-amino-4-(benzo[b]thiophene-5-yl)-butanoyl}-4(S)-Cl-Pro-NH-t-Bu] | 1.9
Cc1ccc(C(=O)N[C@@H](Cc2ccccc2)[C@H](O)C(=O)N2C[C@@H](Cl)C[C@H]2C(=O)NC(C)(C)C)c(C)c1O | 8.2
Cc1cc(O)c(C)c(C(=O)N[C@@H](Cc2ccc3ccccc3c2)[C@H](O)C(=O)N2C[C@@H](Cl)C[C@H]2C(=O)NC(C)(C)C)c1 [(2S,4S)-N-tert-butyl-4-chloro-1-[(2S,3S)-2-hydroxy-3-[(3-hydroxy-2,5-dimethylphenyl)formamido]-4-(naphthalen-2-yl)butanoyl]pyrrolidine-2-carboxamide] | 0.8
Cc1cc(O)c(C)c(C(=O)N[C@@H](Cc2ccccc2)[C@H](O)C(=O)N2C[C@@H](Cl)C[C@H]2C(=O)NC(C)(C)C)c1 [(2S,4S)-N-tert-butyl-4-chloro-1-[(2S,3S)-2-hydroxy-3-[(3-hydroxy-2,5-dimethylphenyl)formamido]-4-phenylbutanoyl]pyrrolidine-2-carboxamide] | 1.3
Cc1cc(O)c(C)c(C(=O)N[C@@H](Cc2ccc3sccc3c2)[C@H](O)C(=O)N2C[C@@H](Cl)C[C@H]2C(=O)NC(C)(C)C)c1 [(2S,4S)-1-[(2S,3S)-4-(1-benzothiophen-5-yl)-2-hydroxy-3-[(3-hydroxy-2,5-dimethylphenyl)formamido]butanoyl]-N-tert-butyl-4-chloropyrrolidine-2-carboxamide] | 1.5
Cc1c(O)cccc1C(=O)N[C@@H](Cc1ccc2ccccc2c1)[C@H](O)C(=O)N1C[C@@H](Cl)C[C@H]1C(=O)NC(C)(C)C [(3-Hydroxy-2-methylbenzoyl)-{2(S)-hydroxy-3(S)-amino-4-(beta-naphtyl)-butanoyl}-4(S)-Cl-Pro-NH-t-Bu] | 1
Cc1c(O)cccc1C(=O)N[C@@H](Cc1ccccc1)[C@H](O)C(=O)N1C[C@@H](Cl)C[C@H]1C(=O)NC(C)(C)C [(3-Hydroxy-2-methylbenzoyl)-(2(S)-hydroxy-3(S)-amino-phenylbutanoyl)-4(S)-Cl-Pro-NH-t-Bu] | 0.9
Cc1c(O)cccc1C(=O)N[C@@H](Cc1cccc(F)c1)[C@H](O)C(=O)N1C[C@@H](Cl)C[C@H]1C(=O)NC(C)(C)C [(2S,4S)-N-tert-butyl-4-chloro-1-[(2S,3S)-4-(3-fluorophenyl)-2-hydroxy-3-[(3-hydroxy-2-methylphenyl)formamido]butanoyl]pyrrolidine-2-carboxamide] | 0.6
Cc1cc(O)c(C)c(C(=O)N[C@@H](Cc2cccc(C(F)(F)F)c2)[C@H](O)C(=O)N2C[C@@H](Cl)C[C@H]2C(=O)NC(C)(C)C)c1 | 1.9
Cc1cccc(C[C@H](NC(=O)c2cccc(O)c2C)[C@H](O)C(=O)N2C[C@@H](Cl)C[C@H]2C(=O)NC(C)(C)C)c1 [(3-Hydroxy-2-methylbenzoyl)-(2(S)-hydroxy-3(S)-amino-4-m-tolylbutanoyl)-4(S)-Cl-Pro-NH-t-Bu] | 0.6
Cc1c(O)cccc1C(=O)N[C@@H](Cc1ccc(O)cc1)[C@H](O)C(=O)N1C[C@@H](Cl)C[C@H]1C(=O)NC(C)(C)C [(2S,4S)-N-tert-butyl-4-chloro-1-[(2S,3S)-2-hydroxy-3-[(3-hydroxy-2-methylphenyl)formamido]-4-(4-hydroxyphenyl)butanoyl]pyrrolidine-2-carboxamide] | 1.3
Cc1ccccc1C[C@H](NC(=O)c1ccc(C)c(O)c1C)[C@H](O)C(=O)N1C[C@@H](Cl)C[C@H]1C(=O)NC(C)(C)C [(2S,4S)-N-tert-butyl-4-chloro-1-[(2S,3S)-2-hydroxy-3-[(3-hydroxy-2,4-dimethylphenyl)formamido]-4-(2-methylphenyl)butanoyl]pyrrolidine-2-carboxamide] | 49.9
Cc1c(O)cccc1C(=O)N[C@@H](Cc1ccc(F)cc1)[C@H](O)C(=O)N1C[C@@H](Cl)C[C@H]1C(=O)NC(C)(C)C [(2S,4S)-N-tert-butyl-4-chloro-1-[(2S,3S)-4-(4-fluorophenyl)-2-hydroxy-3-[(3-hydroxy-2-methylphenyl)formamido]butanoyl]pyrrolidine-2-carboxamide] | 0.9
Cc1ccc(O)c(C)c1C(=O)N[C@@H](Cc1ccc(C(F)(F)F)cc1)[C@H](O)C(=O)N1C[C@@H](Cl)C[C@H]1C(=O)NC(C)(C)C | 3.9
Cc1c(O)cccc1C(=O)N[C@@H](Cc1ccc(-c2ccccc2)cc1)[C@H](O)C(=O)N1C[C@@H](Cl)C[C@H]1C(=O)NC(C)(C)C [(3-Hydroxy-2-methylbenzoyl)-{2(S)-hydroxy-3(S)-amino-4-(4-phenyl)-phenylbutanoyl}-4(S)-Cl-Pro-NH-t-Bu] | 0.9

SMILES | IC50 [nM]
Cc1c(O)cccc1C(=O)N[C@@H](CCc1ccccc1)[C@H](O)C(=O)N1C[C@@H](Cl)C[C@H]1C(=O)NC(C)(C)C [(3-Hydroxy-2-methylbenzoyl)-(2(S)-hydroxy-3(S)-amino-5-phenylpentanoyl)-4(S)-Cl-Pro-NH-t-Bu] | 1.4
Cc1c(O)cccc1C(=O)N[C@@H](Cc1cccc(C(F)(F)F)c1)[C@H](O)C(=O)N1C[C@@H](Cl)C[C@H]1C(=O)NC(C)(C)C [(3-Hydroxy-2-methylbenzoyl)-{2(S)-hydroxy-3(S)-amino-4-(3-trifluoromethyl)-phenylbutanoyl}-4(S)-Cl-Pro-NH-t-Bu] | 0.5
Cc1c(O)cccc1C(=O)N[C@@H](Cc1cc(F)cc(F)c1)[C@H](O)C(=O)N1C[C@@H](Cl)C[C@H]1C(=O)NC(C)(C)C [(3-Hydroxy-2-methylbenzoyl)-{2(S)-hydroxy-3(S)-amino-4-(3,5-difluoro)-phenylbutanoyl}-4(S)-Cl-Pro-NH-t-Bu] | 0.8
Cc1c(O)cccc1C(=O)N[C@@H](Cc1ccc(F)c(F)c1)[C@H](O)C(=O)N1C[C@@H](Cl)C[C@H]1C(=O)NC(C)(C)C [(2S,4S)-N-tert-butyl-4-chloro-1-[(2S,3S)-4-(3,4-difluorophenyl)-2-hydroxy-3-[(3-hydroxy-2-methylphenyl)formamido]butanoyl]pyrrolidine-2-carboxamide] | 0.8
Cc1c(O)cccc1C(=O)N[C@@H](Cc1ccc2sccc2c1)[C@H](O)C(=O)N1C[C@@H](Cl)C[C@H]1C(=O)NC(C)(C)C [(2S,4S)-1-[(2S,3S)-4-(1-benzothiophen-5-yl)-2-hydroxy-3-[(3-hydroxy-2-methylphenyl)formamido]butanoyl]-N-tert-butyl-4-chloropyrrolidine-2-carboxamide] | 1.4
COc1ccc(C[C@H](NC(=O)c2cccc(O)c2C)[C@H](O)C(=O)N2C[C@@H](Cl)C[C@H]2C(=O)NC(C)(C)C)cc1 [(3-Hydroxy-2-methylbenzoyl)-{2(S)-hydroxy-3(S)-amino-4-(4-methoxy)-phenylbutanoyl}-4(S) -Cl-Pro-NH-t-Bu] | 0.9
Cc1ccc(C[C@H](NC(=O)c2cccc(O)c2C)[C@H](O)C(=O)N2C[C@@H](Cl)C[C@H]2C(=O)NC(C)(C)C)cc1C [(2S,4S)-N-tert-butyl-4-chloro-1-[(2S,3S)-4-(3,4-dimethylphenyl)-2-hydroxy-3-[(3-hydroxy-2-methylphenyl)formamido]butanoyl]pyrrolidine-2-carboxamide] | 1.2
Cc1c(O)cccc1C(=O)N[C@@H](Cc1cccc2ccccc12)[C@H](O)C(=O)N1C[C@@H](Cl)C[C@H]1C(=O)NC(C)(C)C [(3-Hydroxy-2-methylbenzoyl)-{2(S)-hydroxy-3(S)-amino-4-(alpha-naphtyl)-butanoyl}-4(S)-Cl-Pro-NH-t-Bu] | 1.5
Cc1ccc(O)c(C)c1C(=O)N[C@@H](Cc1ccc2ccccc2c1)[C@H](O)C(=O)N1C[C@@H](Cl)C[C@H]1C(=O)NC(C)(C)C [(2S,4S)-N-tert-butyl-4-chloro-1-[(2S,3S)-2-hydroxy-3-[(3-hydroxy-2,6-dimethylphenyl)formamido]-4-(naphthalen-2-yl)butanoyl]pyrrolidine-2-carboxamide] | 2.8
Cc1cc(O)c(C)c(C(=O)N[C@@H](Cc2cc(F)cc(F)c2)[C@H](O)C(=O)N2C[C@@H](Cl)C[C@H]2C(=O)NC(C)(C)C)c1 [(3-Hydroxy-2,5-dimethylbenzoyl)-{2(S)-hydroxy-3(S)-amino-4-(3,5-difluoro)-phenylbutanoyl}-4(S)-Cl-Pro-NH-t-Bu] | 1.2
Cc1ccc(C[C@H](NC(=O)c2ccc(C)c(O)c2C)[C@H](O)C(=O)N2C[C@@H](Cl)C[C@H]2C(=O)NC(C)(C)C)cc1 [(2S,4S)-N-tert-butyl-4-chloro-1-[(2S,3S)-2-hydroxy-3-[(3-hydroxy-2,4-dimethylphenyl)formamido]-4-(4-methylphenyl)butanoyl]pyrrolidine-2-carboxamide] | 8.6
Cc1ccc(C[C@H](NC(=O)c2c(C)ccc(O)c2C)[C@H](O)C(=O)N2C[C@@H](Cl)C[C@H]2C(=O)NC(C)(C)C)cc1 | 3.6
Cc1cccc(C[C@H](NC(=O)c2ccc(C)c(O)c2C)[C@H](O)C(=O)N2C[C@@H](Cl)C[C@H]2C(=O)NC(C)(C)C)c1 [(3-Hydroxy-2,4-dimethylbenzoyl)-(2(S)-hydroxy-3(S)-amino-4-m-tolylbutanoyl)-4(S)-Cl-Pro-NH-t-Bu] | 2.5
Cc1cccc(C[C@H](NC(=O)c2cc(C)cc(O)c2C)[C@H](O)C(=O)N2C[C@@H](Cl)C[C@H]2C(=O)NC(C)(C)C)c1 | 1.3
Cc1ccc(C(=O)N[C@@H](Cc2ccc3ccccc3c2)[C@H](O)C(=O)N2C[C@@H](Cl)C[C@H]2C(=O)NC(C)(C)C)c(C)c1O | 3.2
Cc1c(O)cccc1C(=O)N[C@@H](Cc1ccccc1F)[C@H](O)C(=O)N1C[C@@H](Cl)C[C@H]1C(=O)NC(C)(C)C [(2S,4S)-N-tert-butyl-4-chloro-1-[(2S,3S)-4-(2-fluorophenyl)-2-hydroxy-3-[(3-hydroxy-2-methylphenyl)formamido]butanoyl]pyrrolidine-2-carboxamide] | 0.7

— BindingDB's records for doi:10.1016/s0968-0896(99)00127-3 (Sankyo, 1999)
